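Where inhibition never reached the appropriate level, the endpoint shown equals the highest concentration tested. Otherwise, values were interpolated linearly from a five-concentration, 48-hour dose response in 96-well plates. Here, GI50 denotes the concentration required for 50% inhibition of growth. TGI: concentration producing complete growth inhibition.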 Where a SMILES comes first, the peptide text is derived from it. The star is where a group is joined. Boc = CC(C)(C)OC(=O)* Bounds are passed on as bounds.

Among the data in PubChem BioAssay (NCI) are TGI and GI50 values, retold here.

The first experiment relates to SNB-19 CNS. Briefly: NCI tumour cell line growth inhibition, 48 h.
In turn, `O=C1C[C@H](Sc2ccccc2)C2(OCCO2)[C@@H](Sc2ccccc2)C1` displayed a TGI of more than 43.6 µM.
`CCCNC(=O)CCC(C)[C@H]1CCC2C3C(C[C@H](OC(C)=O)[C@@]21C)[C@@]1(C)CCC2(C[C@H]1C[C@H]3OC(C)=O)OOC1(CCC(C)CC1)OO2` (some centres undefined) displayed a TGI of more than 100 µM.
`CCN(C(=S)N[C@@H](Cc1ccccc1)C(=O)N[C@@H](CC(C)C)C(=O)OC)c1ccccc1` showed a TGI of more than 100 µM.
For `CCCn1c(CN(Cc2nc3ccccc3n2CCC)Cc2nc3ccccc3n2CCC)nc2ccccc21`, the TGI is more than 100 µM.
On the same count and under the same terms, as for `CSc1c(C#N)c(N)n2c1C(=O)N(c1ccccc1)C2=S`, the figure is more than 100 µM; as for `N#CCCN(CCC#N)c1ccc(/C=C2\N=C(c3ccccc3)N(c3ccc(Cl)cc3)C2=O)cc1`, more than 100 µM; as for `Cc1c(S(=O)(=O)/N=C(\N)Nc2ccc(Cl)cc2)sc2ccc(Cl)cc12`, 57.4 µM.
Consider `NNC(=O)c1ccc[n+](CCc2ccccc2)c1`, for which the TGI is more than 100 µM.
On the same count and under the same terms, as for `COc1cc(NS(C)(=O)=O)ccc1N1Cc2cnc3ccc4[nH]c(C)cc1c4c23`, the figure is 32.7 µM; as for `O=C1CN2C(c3ccccc3)=NN(c3ccc([N+](=O)[O-])cc3)C2(c2ccccc2)c2cc(Cl)ccc2N1CC1CC1` (centres undefined), more than 100 µM.
Compound `COc1ccc2cc3c4cc5c(cc4cc[n+]3cc2c1OC)OCO5` displayed a TGI of 39.6 µM.
With `COc1ccc2nc3cc(Cl)ccc3c(NCCCNCCCNc3c4ccc(Cl)cc4nc4ccc(OC)cc34)c2c1`, the TGI stood at 0.314 µM.
Still for that read-out and setting: in the case of `O=c1oc(-c2ccc(O)c(O)c2)cc2cccc(O)c12` it was more than 76.9 µM.
As for `COc1cc2c(cc1-c1c(C)noc1C)cc(C)c(=O)n2Cc1ccccn1`, the GI50 was 1.86 µM and the TGI was more than 100 µM.
For `CCOC(=O)c1c(-c2ccc(OC)cc2)c(C#N)c(=S)n(C2OC(COC(C)=O)C(OC(C)=O)C(OC(C)=O)C2OC(C)=O)c1C` (centres undefined), the TGI was more than 100 µM.
The same measure, in the same setting: as for `C1=CC2=CC=CC3c4nc5ccc6ccccc6c5nc4C(=C1)C23` (centres undefined), the figure is more than 100 µM; as for `O=C(NCCCN(CCCCN(CCCNC(=O)C(F)(F)F)Cc1ccccc1)Cc1ccccc1)C(F)(F)F`, 26.6 µM.
Consider `O=C1/C(=C\c2cccc(Oc3ccccc3)c2)S(=O)(=O)C(c2ccccc2)N1Cc1ccccc1` (centres undefined), for which the TGI is 55.6 µM.
The same measure, in the same setting: in the case of `CCOC(=O)NC(=S)NN(C)C1=NCC(C)(C)S1` it was more than 100 µM; in that of `C/C=C/C=C/c1nc(C#N)c(N)o1`, more than 100 µM.
On the same count and under the same terms, in the case of `CC(C)(C)OC(=O)NCC(=O)NCC(=O)NCC(=O)NCC(=O)O` (Boc-GGGG-OH) it was more than 100 µM.
As for `COc1cc(C2SCC(=O)N2c2ccc(NC(=O)c3ccc(N4C(=O)CSC4c4cc(OC)c(OC)c(OC)c4)cc3)cc2)cc(OC)c1OC` (centres undefined), the TGI is more than 100 µM.

Another experiment deals with MCF7 breast. Put plainly: NCI tumour cell line growth inhibition, 48 h.
`O=P(c1ccccc1)(c1ccccc1)N1O[C@@H](c2ccccc2)C=C[C@H]1c1ccccc1`: the TGI came out at 12.6 µM.
The same measure, in the same setting: as for `COC(=O)[C@]12CC[C@H]3CN(C(=O)OCc4ccccc4)[C@H]([C@H]31)[C@H](c1ccco1)N2S(=O)(=O)c1ccc(C)cc1`, the figure is 42 µM; as for `O=C1C[C@H](Sc2ccccc2)C2(OCCO2)[C@@H](Sc2ccccc2)C1`, 6.01 µM; as for `CCCNC(=O)CCC(C)[C@H]1CCC2C3C(C[C@H](OC(C)=O)[C@@]21C)[C@@]1(C)CCC2(C[C@H]1C[C@H]3OC(C)=O)OOC1(CCC(C)CC1)OO2` (some centres undefined), more than 100 µM.
Compound `CCN(C(=S)N[C@@H](Cc1ccccc1)C(=O)N[C@@H](CC(C)C)C(=O)OC)c1ccccc1` displayed a TGI of more than 100 µM.
With `CCCn1c(CN(Cc2nc3ccccc3n2CCC)Cc2nc3ccccc3n2CCC)nc2ccccc21`, the TGI is more than 29.2 µM.
`CSc1c(C#N)c(N)n2c1C(=O)N(c1ccccc1)C2=S` gave a TGI of more than 100 µM.
`N#CCCN(CCC#N)c1ccc(/C=C2\N=C(c3ccccc3)N(c3ccc(Cl)cc3)C2=O)cc1` gave a TGI of more than 100 µM.
Same read-out and setting: as for `Cc1c(S(=O)(=O)/N=C(\N)Nc2ccc(Cl)cc2)sc2ccc(Cl)cc12`, the figure is 35.8 µM; as for `NNC(=O)c1ccc[n+](CCc2ccccc2)c1`, more than 100 µM; as for `COc1cc(NS(C)(=O)=O)ccc1N1Cc2cnc3ccc4[nH]c(C)cc1c4c23`, more than 100 µM.
Regarding `O=C1CN2C(c3ccccc3)=NN(c3ccc([N+](=O)[O-])cc3)C2(c2ccccc2)c2cc(Cl)ccc2N1CC1CC1` (centres undefined), the TGI is more than 100 µM.
The compound `COc1ccc2cc3c4cc5c(cc4cc[n+]3cc2c1OC)OCO5` registered a TGI of more than 96.2 µM.
`CCN(CCO)CC1COc2ccccc2O1` (centres undefined) displayed a TGI of more than 100 µM.
Compound `COc1ccc2nc3cc(Cl)ccc3c(NCCCNCCCNc3c4ccc(Cl)cc4nc4ccc(OC)cc34)c2c1` showed a TGI of 0.157 µM.
For the compound `O=c1oc(-c2ccc(O)c(O)c2)cc2cccc(O)c12`, the TGI is more than 54.1 µM.
`COc1cc2c(cc1-c1c(C)noc1C)cc(C)c(=O)n2Cc1ccccn1`: the GI50 is 0.333 µM and the TGI is more than 100 µM.
In turn, `CCOC(=O)c1c(-c2ccc(OC)cc2)c(C#N)c(=S)n(C2OC(COC(C)=O)C(OC(C)=O)C(OC(C)=O)C2OC(C)=O)c1C` (centres undefined) had a TGI of more than 100 µM.
The compound `C1=CC2=CC=CC3c4nc5ccc6ccccc6c5nc4C(=C1)C23` (centres undefined) registered a TGI of more than 100 µM.
`O=C(NCCCN(CCCCN(CCCNC(=O)C(F)(F)F)Cc1ccccc1)Cc1ccccc1)C(F)(F)F` displayed a TGI of 24.7 µM.
In turn, `O=C1/C(=C\c2cccc(Oc3ccccc3)c2)S(=O)(=O)C(c2ccccc2)N1Cc1ccccc1` (centres undefined) had a TGI of more than 100 µM.
Compound `O=C(N=Nc1cc(Cl)ccc1Cl)NNc1cc(Cl)ccc1Cl` displayed a TGI of 36.4 µM.
`CCOC(=O)NC(=S)NN(C)C1=NCC(C)(C)S1`: the TGI is more than 100 µM.
For the compound `C/C=C/C=C/c1nc(C#N)c(N)o1`, the TGI is more than 100 µM.
The compound `CC(C)(C)OC(=O)NCC(=O)NCC(=O)NCC(=O)NCC(=O)O` (Boc-GGGG-OH) registered a TGI of more than 100 µM.
`COc1cc(C2SCC(=O)N2c2ccc(NC(=O)c3ccc(N4C(=O)CSC4c4cc(OC)c(OC)c(OC)c4)cc3)cc2)cc(OC)c1OC` (centres undefined): the TGI is more than 100 µM.

Another experiment relates to RXF 393 renal. Put plainly: NCI tumour cell line growth inhibition, 48 h.
As to `O=P(c1ccccc1)(c1ccccc1)N1O[C@@H](c2ccccc2)C=C[C@H]1c1ccccc1`, the TGI is 22.9 µM.
The same measure, in the same setting: as for `COC(=O)[C@]12CC[C@H]3CN(C(=O)OCc4ccccc4)[C@H]([C@H]31)[C@H](c1ccco1)N2S(=O)(=O)c1ccc(C)cc1`, the figure is 38.1 µM; as for `O=C1C[C@H](Sc2ccccc2)C2(OCCO2)[C@@H](Sc2ccccc2)C1`, 4.25 µM.
`CCCNC(=O)CCC(C)[C@H]1CCC2C3C(C[C@H](OC(C)=O)[C@@]21C)[C@@]1(C)CCC2(C[C@H]1C[C@H]3OC(C)=O)OOC1(CCC(C)CC1)OO2` (some centres undefined) displayed a TGI of more than 100 µM.
In turn, `CCN(C(=S)N[C@@H](Cc1ccccc1)C(=O)N[C@@H](CC(C)C)C(=O)OC)c1ccccc1` returned a TGI of more than 100 µM.
The same measure, in the same setting: as for `CCCn1c(CN(Cc2nc3ccccc3n2CCC)Cc2nc3ccccc3n2CCC)nc2ccccc21`, the figure is 8.96 µM; as for `CSc1c(C#N)c(N)n2c1C(=O)N(c1ccccc1)C2=S`, more than 100 µM.
The compound `N#CCCN(CCC#N)c1ccc(/C=C2\N=C(c3ccccc3)N(c3ccc(Cl)cc3)C2=O)cc1` displayed a TGI of more than 100 µM.
`Cc1c(S(=O)(=O)/N=C(\N)Nc2ccc(Cl)cc2)sc2ccc(Cl)cc12` registered a TGI of more than 100 µM.
For the compound `NNC(=O)c1ccc[n+](CCc2ccccc2)c1`, the TGI was more than 100 µM.
Take `COc1cc(NS(C)(=O)=O)ccc1N1Cc2cnc3ccc4[nH]c(C)cc1c4c23`: the TGI was more than 100 µM.
The compound `O=C1CN2C(c3ccccc3)=NN(c3ccc([N+](=O)[O-])cc3)C2(c2ccccc2)c2cc(Cl)ccc2N1CC1CC1` (centres undefined) displayed a TGI of more than 100 µM.
With `COc1ccc2cc3c4cc5c(cc4cc[n+]3cc2c1OC)OCO5`, the TGI is more than 69.6 µM.
Turning to `CCN(CCO)CC1COc2ccccc2O1` (centres undefined), the TGI was more than 100 µM.
